{"source": "patent US20260234188A1", "about": "“CHEMOKINE-BINDING PEPTIDES” (Oxford University Innovation Limited, priority 2022, published 2026)", "key": {"CXCL12": {"target": "CXCL12 (Homo sapiens, UniProt P48061)", "sequence (P48061 22-89 limits assumed)": "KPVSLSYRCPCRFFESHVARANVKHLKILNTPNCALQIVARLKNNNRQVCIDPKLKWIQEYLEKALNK", "type": "cell-based", "parameters": "activity in inhibiting migration of activated T cells in comparison to HD2_Y5W: dose or concentration left out as unconfirmed", "details": "chemokine at EC80; for chemotaxis compared with the parental HD2 peptide: HD2 mutant peptides 10 μM", "procedure": "FIG. 22. Effect of selected combinatorial HD2 mutations on chemotaxis. FIG. 22A. Box-whisker plot showing the effect of the exemplar single and combinatorically mutant (CM) HD2 peptides on activated-T cell (ATC) migration induced by CXCL12. All experiments were performed as at least three technical and three biological replicates, and individual data points are indicated. […] HD2SCR is a scrambled version of HD2. […] Statistically significant differences (compared to control, HD2_Y5W, coloured blue), using Dunnett's test with correction for multiple comparisons, are indicated by asterisks: ****=P≤0.0001, ***=P≤0.001, **=P≤0.01, *=P≤0.05. All comparisons were made to HD2_Y5W, as it is present in CM539, CM452, and CM304. […] Technical replicates are shown as individual data points. […] The response curve (solid blue line) and its 95% confidence interval (grey ribbon) were calculated using a 4-parameter log-logistic plot. The agonist and estimated IC50 (dotted green line) are indicated.\nThe J:CXCR1 cell line was generated by transfecting Jurkat cells by electroporation with PvuI-linearized plasmid D1398 and selecting with blasticidin (Sigma-Aldrich, Cat #203350, […]). […] J:CXCR1 cells were cultured in RPMI-1640 media (Gibco), supplemented with 10% FBS and 5 mM L-Glutamine with blasticidin. For J:CXCR1 migration assays, 300,000 cells/well were added to the top chamber of a 3 μm Transwell insert (Corning) in 50 μL of migration media (RPMI-1640, 0.5% FBS, 4 mM L-Glutamine, 0.05% DMSO). The bottom chamber contained 150 μL of chemokine, with or without peptide. Cells were migrated at 37° C. in 5% CO2 for 4 hours. The plate was incubated on a shaking platform for 10 minutes, 800 rpm, at 37° C., and 150 μL from the bottom of the plate transferred into a U-bottom plate containing 50 μL of migration media. Cell counts were determined by Attune NxT Flow Cytometer Plate Reader (ThermoFisher), based on cell size parameters FSC-H/SSC-H. Experiments were performed in 3 technical and 3 biological replicates. THP-1 migration assays were carried out using methods known in the art. Activated T-cell assays were carried out using methods known in the art, with the following modifications in the isolation process. Peripheral blood cells were obtained from leucocyte cones (NHS Blood Transfusion Services), following which, T-cells were isolated using two rounds of human CD8+ T-cell isolation kit (480011, BioLegend). At day 10 after activation, T-cells were frozen at 20 E6 cells/ml in TexMACS medium supplemented with 10% DMSO (D2650, Sigma) in liquid nitrogen. Prior to use, activated T-cells were recovered for 24 hours in TexMACs medium at 0.3 E6 cells/ml and incubated at 37° C. in 5% CO2. Chemokine sources are described in Supplementary information Table 3. Statistical significances between control experimental groups was evaluated using Dunnett's test. IC50 experiments were performed at the EC80 dose of chemokine. EC80 was calculated by fitting a chemokine dose-response curve with 3 parameters (fixing the top to 100%). IC50 was calculated by fitting an inhibitor response curve with 4 parameters.\nMigration assays using THP1, activated T-cell (ATC) and J:CXCR1 (Jurkat cells stably transfected with CXCR1 receptor) were performed as described previously. IC50 experiments were performed at the EC80 dose of chemokine. EC80 was calculated by fitting a chemokine dose-response curve with 3 parameters (fixing the top to 100%). IC50 was calculated by fitting an inhibitor response curve with 4 parameters. R-packages used were ggupset_0.3.0, DescTools_0.99.44, and drc_3.0-1."}, "CC and CXC chemokines": {"test_system": "CC and CXC chemokines", "assay": "Chemokine-induced cell migration assays, pooled over chemokines (meta-analysis)", "type": "cell-based, human", "details": "single HD2 mutations; nine CC and six CXC chemokines", "procedure": "FIG. 16. Effect of HD2 alanine mutations on chemotaxis. […] All experiments were performed as three technical and three biological replicates, and individual data points are indicated, and coloured by the chemokine used. Statistically significant differences (compared to control, coloured blue), using Dunnett's test with correction for multiple comparisons, are indicated by asterisks: ****=P≤0.0001, ***=P≤0.001, **=P≤0.01, *=P≤[…] observations per group (three technical and three biological replicates for each chemokine). FIG. 16B, Faceted plots of change in median normalised cell count between alanine mutant and wild-type HD2 peptide obtained in cell migration assays (Y-axis, Δmedian normalised cell count) versus alanine mutated residue (X-axis). Chemokines used for each experiment are indicated in the strip to the right of each plot. Statistically significant differences compared to parental HD2 are shown as red dots. […] Scatterplot of Δmedian normalised cell count (Y-axis, obtained in cell migration assays) versus Δlog 2 E (obtained in phage-display experiments) for peptide:chemokine pairs. Individual data points indicate peptide chemokine pairs for which both cell migration and Δlog 2 E were available. Linear regression plot with 95% confidence interval, Spearman correlation coefficient (R) and statistical significance (p) are shown.\nFIG. 19. […] All experiments were performed as at least three technical and three biological replicates, and individual data points are indicated, and coloured by the chemokine used, for all chemokines studied (n=16 chemokines). Statistically significant differences (compared to control, coloured blue), using Dunnett's test with correction for multiple comparisons, are indicated by asterisks: ****=P≤0.0001, ***=P≤0.001, **=P≤0.01, *=P≤0.05.\nBriefly, cell migration assays use THP1 cells (human monocyte) and primary human buffy coat white cells (consisting of neutrophil granulocytes, monocytes, and lymphocytes), and activated T-cells. THP1 cells and primary monocytes respond to CCL2, CCL3, CCL5, CCL8 and CXCL4, granulocytes to CXCL1 and CXCL8, activated T-cells to CXCL9/10/11. Assays are performed in 96-well Boyden chambers, and migrated cells counted and characterized using and ATTUNE Flow Cytometer as described. Triplicate assays are performed at the EC80 dose of each chemokine at 10 μM peptide concentration.\nThe J:CXCR1 cell line was generated by transfecting Jurkat cells by electroporation with PvuI-linearized plasmid D1398 and selecting with blasticidin (Sigma-Aldrich, Cat #203350, […]). […] J:CXCR1 cells were cultured in RPMI-1640 media (Gibco), supplemented with 10% FBS and 5 mM L-Glutamine with blasticidin. For J:CXCR1 migration assays, 300,000 cells/well were added to the top chamber of a 3 μm Transwell insert (Corning) in 50 μL of migration media (RPMI-1640, 0.5% FBS, 4 mM L-Glutamine, 0.05% DMSO). The bottom chamber contained 150 μL of chemokine, with or without peptide. Cells were migrated at 37° C. in 5% CO2 for 4 hours. The plate was incubated on a shaking platform for 10 minutes, 800 rpm, at 37° C., and 150 μL from the bottom of the plate transferred into a U-bottom plate containing 50 μL of migration media."}}, "note": "Ends that are not written are not given here. Peptide text beside a SMILES is read from it."}
{"compound": "EEDDWTAYAPLTCYFT-NH2 [HD2_W5, EEDDWTAYAPLTCYFT]", "values": [{"measurement": "chemotaxis compared with the parental HD2 peptide", "setting": "CXCL12", "value": "significant reduction in chemotaxis"}, {"measurement": "chemotaxis inhibition compared with HD2, meta-analysis", "setting": "CC and CXC chemokines", "value": "significant improvement over HD2"}]}
{"compound": "CC(C)C[C@H](NC(=O)[C@@H]1CCCN1C(=O)[C@H](C)NC(=O)[C@H](Cc1ccc(O)cc1)NC(=O)[C@H](C)NC(=O)[C@@H](NC(=O)[C@H](Cc1ccc(O)cc1)NC(=O)[C@H](CC(=O)O)NC(=O)[C@H](CC(=O)O)NC(=O)[C@H](CCC(=O)O)NC(=O)[C@@H](N)CCC(=O)O)[C@@H](C)O)C(=O)N[C@H](C(=O)N[C@@H](CS)C(=O)N[C@@H](Cc1ccc(O)cc1)C(=O)N[C@@H](Cc1ccccc1)C(=O)N[C@@H](CS)C(N)=O)[C@@H](C)O", "note": "[HD2_C16, EEDDYTAYAPLTCYFC] (H-EEDDYTAYAPLTCYFC-NH2; N-terminus assumed)", "values": [{"measurement": "chemotaxis compared with the parental HD2 peptide", "setting": "CXCL12", "value": "significant reduction in chemotaxis"}, {"measurement": "activity in inhibiting migration of activated T cells in comparison to HD2_Y5W", "setting": "CXCL12; peptides final concentration as printed", "value": "potent inhibitor"}, {"measurement": "chemotaxis inhibition compared with HD2, meta-analysis", "setting": "CC and CXC chemokines", "value": "significant improvement over HD2"}]}
{"compound": "EEDDYTAYWPLTCYFT [A9W]", "values": [{"measurement": "chemotaxis compared with the parental HD2 peptide", "setting": "CXCL12", "value": "significant reduction in chemotaxis"}, {"measurement": "chemotaxis inhibition compared with HD2, meta-analysis", "setting": "CC and CXC chemokines", "value": "significant improvement over HD2"}]}
{"compound": "EEDDYWAYAPLTCYFT [HD2_W6]", "values": [{"measurement": "chemotaxis inhibition compared with HD2, meta-analysis", "setting": "CC and CXC chemokines", "value": "significant improvement over HD2"}]}
